Legend:
Assay type in all cases: in vivo, Male C57BL/6 mice
[1] = system: endothelial glycocalyx and mitochondria of thoracic aortas; test: Transmission electron microscopy of thoracic aortas with lanthanum staining after CLP; conditions: 6 h after CLP; colivelin 100 μg/kg i.p. at 1 h after CLP; vs vehicle
From the text: (§1) The investigation conformed to the National Institutes of Health Guide for the Care and Use of Laboratory Animals (Eighth Edition, 2011) and was approved by the Institutional Animal Care and Use Committee of the Cincinnati Children's Hospital Medical Center. Male C57BL/6 mice were obtained from Charles River Laboratories International, Inc. (Wilmington, MA). Mice were used at 3-5 months of age to mimic the equivalent for human ranges from 20-25 years (29). Male mice only were chosen for the experimentation to avoid interference from female hormonal fluctuations in sepsis responses during the estrous cycle. Mice were housed in pathogen-free conditions under a 10-h light/14-h dark cycle with free access to food and water. Mice were anesthetized with 2.0% isoflurane in 50% oxygen and polymicrobial sepsis was induced by cecal ligation and puncture (CLP) (30). After a midline laparotomy, the cecum was exteriorized, ligated and punctured twice with a 23-G needle. The cecum was then returned into the peritoneal cavity and the abdominal incision was closed. […]
Glycocalyx structure was assessed by transmission electron microscopy (35). […]

STAT3 = test: Western blot of STAT3 and phosphorylated forms in thoracic aorta after CLP; conditions: 6 h after CLP
From the text: (§2) The investigation conformed to the National Institutes of Health Guide for the Care and Use of Laboratory Animals (Eighth Edition, 2011) and was approved by the Institutional Animal Care and Use Committee of the Cincinnati Children's Hospital Medical Center. Male C57BL/6 mice were obtained from Charles River Laboratories International, Inc. (Wilmington, MA). Mice were used at 3-5 months of age to mimic the equivalent for human ranges from 20-25 years (29). Male mice only were chosen for the experimentation to avoid interference from female hormonal fluctuations in sepsis responses during the estrous cycle. Mice were housed in pathogen-free conditions under a 10-h light/14-h dark cycle with free access to food and water. Mice were anesthetized with 2.0% isoflurane in 50% oxygen and polymicrobial sepsis was induced by cecal ligation and puncture (CLP) (30). After a midline laparotomy, the cecum was exteriorized, ligated and punctured twice with a 23-G needle. The cecum was then returned into the peritoneal cavity and the abdominal incision was closed. After the procedure, mice were randomly assigned to three treatment groups: a vehicle-treated group received distilled water (200 μl/mouse) intraperitoneally (i.p.); a 100 μg colivelin-treated group received the colivelin at 100 μg/kg i.p., and a 200 μg colivelin-treated group received the colivelin at 200 μg/kg i.p. at 1 h after CLP. The intraperitoneal injection was chosen to allow for a rapid uptake and bioavailability of the peptide. All groups of mice also received fluid resuscitation (35 ml/kg normal saline solution subcutaneously) immediately after, at 3 h and 12 h after the CLP procedure. To minimize pain at the surgical incision site, lidocaine hydrochloride (1%, 4 mg/kg total dose) was applied locally immediately after the procedure. […] Mice were then sacrificed at 0, 6 and 18 h after CLP. Blood, lungs, kidneys, liver, and thoracic aortas were collected for biochemical assays.
Subcellular fractionation was performed using a centrifugation model. Tissue samples of lung and thoracic aortas were homogenized in a buffer (50 mg tissue/100 μL) containing 0.32 M sucrose, 10 mM Tris-HCl (pH 7.4), 1 mM EGTA, 2 mM EDTA, 5 mM NaN3, 10 mM β-mercaptoethanol, 2 μM leupeptin, 0.15 μM pepstatin A, 0.2 mM phenylmethanesulfonyl fluoride, 50 mM NaF, 1 mM sodium orthovanadate and 0.4 nM microcystin. Samples were centrifuged at 1000×g for 10 min at 4° C. and the supernatants collected as cytosol extracts, which also contain membrane and mitochondria. The pellets were then solubilized in Triton buffer (1% Triton X-100, 250 mM NaCl, 50 mM Tris HCl at pH 7.5, 3 mM EGTA, 3 mM EDTA, 1 mM phenylme-thanesulfonyl fluoride, 0.1 mM sodium orthovanadate, 10% glycerol, 2 mM p-nitrophenyl phosphate, 0.5% NP-40 and 46 μM aprotinin). The lysates were rocked for 1 h and subsequently centrifuged at 15,000×g for 30 min at 4° C. and the supernatant collected as nuclear extracts. The Bradford protein assay was then used for quantitative determination of total proteins.
Cytosol content of total AMPKα1/α2 and its phosphorylated form pAMPKα1/α2 (Santa Cruz Biotechnology, Dallas, TX, USA), cytosol and nuclear content of STAT3 and its phosphorylated forms pSTAT3(Tyr705) and pSTAT3(Ser727) (Cell Signaling Technology, Danvers, MA, USA) were determined by immunoblot analyses; β-actin was concomitantly probed with mouse anti-β-actin (Santa Cruz Biotechnology) as a loading control for both cytosol and nuclear proteins. Extracts were heated at 70° C. in equal volumes of 4× Protein Sample Loading Buffer. Twenty-five μg of proteins were loaded per lane on a 10% Bis-Tris gel. Proteins were separated electrophoretically and transferred to nitro-cellulose membranes. The immunoreaction was detected by near-infrared fluorescence. Membranes were blocked with Odyssey blocking buffer (LI-COR Biotechnology, Lincoln, NE, USA) and incubated with primary antibodies. […]

AMPK = test: Western blot of AMPKα and pAMPKα in thoracic aorta cytosol after CLP; conditions: 6 h after CLP; colivelin i.p. at 1 h after CLP; vs vehicle; dose-independent
From the text: as §1, with “water.” for “water. Mice were anesthetized with 2.0% isoflurane in 50% oxygen and polymicrobial sepsis was induced by cecal ligation and puncture (CLP) (30). After a midline laparotomy, the cecum was exteriorized, ligated and punctured twice with a 23-G needle. The cecum was then returned into the peritoneal cavity and the abdominal incision was closed.”
Subcellular fractionation was performed using a centrifugation model. […] The Bradford protein assay was then used for quantitative determination of total proteins.
Cytosol content of total AMPKα1/α2 and its phosphorylated form pAMPKα1/α2 (Santa Cruz Biotechnology, Dallas, TX, USA), cytosol and nuclear content of STAT3 and its phosphorylated forms pSTAT3(Tyr705) and pSTAT3(Ser727) (Cell Signaling Technology, Danvers, MA, USA) were determined by immunoblot analyses; β-actin was concomitantly probed with mouse anti-β-actin (Santa Cruz Biotechnology) as a loading control for both cytosol and nuclear proteins. […] The immunoreaction was detected by near-infrared fluorescence. […]

[2] = system: polymicrobial sepsis by cecal ligation and puncture (CLP); test: Long-term studies of severity of sepsis (survival, severity score, body weight) up to 7 days after CLP
From the text: as §2
In a separate study, another cohort of mice was subjected to the CLP procedure and was used for assessing health and moribundity conditions, and survival rate up to 7 days. Mice were divided into two treatment groups in a blind and random fashion: a vehicle-treated group received distilled water (200 μl/mouse), and a colivelin-treated group received colivelin (100 μg/kg subcutaneously) at 1 h, 3 h and 24 h after the CLP procedure. Twelve animals were included for each group. One animal was sacrificed because of unintentional extensive damage in the small intestine during surgical procedure and was excluded from the study. The subcutaneous injection was chosen to avoid further stress in the peritoneum since the animals also received intraperitoneal treatment of antibiotics. To mimic the clinical management of antimicrobial coverage, all mice received ceftriaxone (25 mg/kg) and metronidazole (12.5 mg/kg) intraperitoneally every 12 h after CLP for three days. To minimize pain, buprenorphine (0.05 mg/kg) was administered subcutaneously at 1 h after surgery and every 12 h for three days after surgery. All groups of mice also received fluid resuscitation (35 ml/kg normal saline with 5% dextrose subcutaneously) every 24 h for all the duration of the experimental period. Although some spontaneous death occurred given the acute severity of the disease, spontaneous death was not considered as endpoint for this study for ethical reasons. […]

[3] = colivelin i.p. at 1 h after CLP, vs vehicle

In the case of Colivelin (SALLRSIPAPAGASRLLLLTGEIDLP), the “Dense structure of endothelial glycocalyx in thoracic aorta (electron microscopy)” value [1] was “appeared well preserved”, the “Mitochondria in thoracic aorta cells (electron microscopy)” value [1] was “appeared normal with dense matrix in all cell types” and the “Nuclear expression of pSTAT3(Tyr705), thoracic aorta” value (STAT3; colivelin at the highest dose) was “inhibited”. The “Cytosolic expression of pSTAT3(Ser727), thoracic aorta” value (STAT3; [3]) was “significantly reduced”, the “Cytosolic expression of pSTAT3(Tyr705), thoracic aorta” value (STAT3; [3]) was “significantly reduced” and the “Levels of total STAT3 in the cytosol, thoracic aorta” value (STAT3; [3]) was “restored”. For the same substance, the “Levels of total STAT3 in the nucleus, thoracic aorta” value (STAT3; [3]) was “remained unchanged”, the “Nuclear expression of pSTAT3(Ser727), thoracic aorta” value (STAT3; [3]) was “did not affect” and the “Ratio of the phosphorylated/total forms of AMPKα (p-AMPKα/AMPKα), cytosol of thoracic aortas” value (AMPK) was “significantly increased”. For the same substance, the “Health of survivor mice (severity score) at 6 and 7 days” value ([2]; 6 and 7 days after CLP, survivor mice, colivelin 100 μg/kg s.c., vs survivor vehicle-treated mice) was “significantly healthier”, the “Mice survived at 7 days” value ([2]; 7 days after CLP, colivelin 100 μg/kg s.c. at 1 h, 3 h and 24 h, with antibiotics and fluids, vehicle 6 out of 12) was 8 out of 11 and the Survival rate ([2]; 7 days after CLP, colivelin 100 μg/kg s.c. at 1 h, 3 h and 24 h, with antibiotics and fluids, vehicle 50%, not significant) was 72.6%. For the same substance, the “Body weight, later time points” value ([2]; later than two days, up to 7 days after CLP, colivelin 100 μg/kg s.c., vs vehicle) was “vehicle-treated mice maintained a significant lower weight than colivelin-treated mice” and the “Severity of signs of sepsis (severity score), all the observation period” value ([2]; up to 7 days after CLP, colivelin 100 μg/kg s.c. at 1 h, 3 h and 24 h, with antibiotics and fluids, vs vehicle) was “less severe signs of sepsis”.
